Experimental data published in ChEMBL document CHEMBL5150000, “Insights on Dengue and Zika NS5 RNA-dependent RNA polymerase (RdRp) inhibitors” (Eur J Med Chem, 2021).
One block for each compound: values may come before it.

Legend:
dengue virus type 3 [1] = test: Antiviral activity against DENV-3 RNA-dependent RNA polymerase infected in African green monkey Vero cells assessed as reduction in viral replication incubated for 2 days by qRT-PCR analysis; format: functional, organism-based; conditions: 48 h
[2] = Toxicity in rat assessed as animal survival at 15 to 30 mg/kg, iv measured for 7 days; format: organism-based; conditions: in vivo, dose 15-30 mg/kg, time 7 day, read-out: Activity
dengue virus type 2 [3] = test: Antiviral activity against DENV-2 RNA-dependent RNA polymerase infected in African green monkey Vero cells assessed as reduction in viral replication incubated for 2 days by qRT-PCR analysis; format: functional, organism-based; conditions: 48 h
dengue virus type 4 [4] = test: Antiviral activity against DENV-4 RNA-dependent RNA polymerase infected in African green monkey Vero cells assessed as reduction in viral replication incubated for 2 days by qRT-PCR analysis; format: functional, organism-based; conditions: 48 h
[5] = Inhibition of DENV RNA polymerase; design: species or system Dengue virus
[6] = Inhibition of DENV RNA-dependent RNA polymerase activity; design: species or system Dengue virus
dengue virus type 1 [7] = test: Antiviral activity against DENV-1 RNA-dependent RNA polymerase infected in African green monkey Vero cells assessed as reduction in viral replication incubated for 2 days by qRT-PCR analysis; format: functional, organism-based; conditions: 48 h
dengue virus type 2 [8] = test: Antiviral activity against DENV-2 NS5 infected in African green monkey Vero cells; format: functional, organism-based
dengue virus type 3 [9] = test: Antiviral activity against DENV-3 NS5 infected in African green monkey Vero cells; format: functional, organism-based
[10] = Inhibition of DENV-3 full length NS5/RNA-dependent RNA polymerase; design: species or system dengue virus type 3
dengue virus type 1 [11] = test: Antiviral activity against DENV-1 NS5 infected in African green monkey Vero cells; format: functional, organism-based
[12] = Inhibition of Zika virus RNA N7 methyltransferase
[13] = Inhibition of Dengue virus RNA N7 methyltransferase
Dengue virus [14] = test: Antiviral activity DENV infected in African green monkey Vero 76 cells assessed as virus-induced cytopathic effect; format: functional, organism-based
dengue virus type 2 [15] = test: Antiviral activity against DENV-2 incubated for 72 hrs by MTT assay; format: functional, organism-based
dengue virus type 1 [16] = test: Antiviral activity against DENV-1 infected hamster BHK-21 cells assessed as reduction in viral replication incubated for 4 hrs; format: functional, organism-based
dengue virus type 3 [17] = test: Antiviral activity against DENV-3 infected hamster BHK-21 cells assessed as reduction in viral replication incubated for 4 hrs; format: functional, organism-based
dengue virus type 2 [18] = test: Antiviral activity against DENV-2 infected hamster BHK-21 cells assessed as reduction in viral replication incubated for 4 hrs; format: functional, organism-based
dengue virus type 4 [19] = test: Antiviral activity against DENV-4 infected hamster BHK-21 cells assessed as reduction in viral replication incubated for 4 hrs; format: functional, organism-based
dengue virus type 2 [20] = test: Antiviral activity against DENV-2 RNA-dependent RNA polymerase; format: functional, organism-based
[21] = Binding affinity to DENV-2 RNA-dependent RNA polymerase assessed as dissociation constant using GTP as substrate; design: species or system dengue virus type 2
dengue virus type 2 [22] = test: Antiviral activity against DENV-2; format: functional, organism-based
HepG2 = test: Cytotoxicity against human HepG2 cells
THP-1 = test: Cytotoxicity against human THP-1 cells
Zika virus = test: Antiviral activity against Zika virus; format: functional, organism-based
NS5 = NS5 (Zika virus, UniProt A0A143MHK7); test: Inhibition of Zika virus RNA-dependent RNA polymerase
Dengue virus [23] = test: Antiviral activity against DENV; format: functional, organism-based

NS5, sequence (A0A143MHK7 whole entry): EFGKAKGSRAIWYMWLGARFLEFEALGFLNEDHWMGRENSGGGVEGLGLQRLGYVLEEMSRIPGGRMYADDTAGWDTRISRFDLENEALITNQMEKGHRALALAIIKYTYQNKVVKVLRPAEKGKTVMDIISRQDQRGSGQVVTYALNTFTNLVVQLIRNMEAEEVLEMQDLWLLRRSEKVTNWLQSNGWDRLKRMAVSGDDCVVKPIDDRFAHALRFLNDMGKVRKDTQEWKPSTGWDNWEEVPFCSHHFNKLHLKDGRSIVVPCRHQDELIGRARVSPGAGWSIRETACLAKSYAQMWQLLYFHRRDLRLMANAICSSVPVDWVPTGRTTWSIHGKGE

Compound: C[C@@]1(O)[C@H](O)[C@@H](CO)O[C@H]1n1ccc(N)nc1=O
EC50 (dengue virus type 3 [1]): 2400 nM | survival at 168 h [2]: 60% | EC50 (dengue virus type 2 [3]): 2800 nM | EC50 (dengue virus type 4 [4]): 2600 nM | IC50 [5]: 11200 nM | IC50 [6]: 19300 nM | EC50 (dengue virus type 1 [7]): 2900 nM

Compound: CC(=O)Oc1ccc2oc(=O)sc2c1
EC50 (dengue virus type 2 [8]): 6000 nM | EC50 (dengue virus type 3 [9]): 29400 nM | IC50 [10]: 287000 nM | EC50 (dengue virus type 1 [11]): 29500 nM

Compound: COc1nc(N)ncc1-c1cn(COCCO)cn1
IC50 [12]: 1700 nM | IC50 [13]: 8400 nM | EC50 (Dengue virus [14]): 57 nM

Compound: CN[C@@H]1CC[C@@H]2CN(c3c(F)c(N)c4c(=O)c(C(=O)O)cn(C5CC5)c4c3F)C[C@@H]21
EC50 (dengue virus type 2 [15]): 9200 nM

Compound: OC[C@H]1O[C@@H](n2c3ccc(Cl)cc3c3c(-c4ccco4)ncnc32)[C@H](O)[C@@H]1O
CC50 (HepG2): 170 nM | CC50 (THP-1): 1560 nM

Compound: Nc1ncnc2c1c(-c1cc3ccccc3o1)cn2[C@@H]1O[C@H](CO)[C@@H](O)[C@H]1O
EC50 (Zika virus): 2200 nM | IC50 (NS5): 500 nM | EC50 (Dengue virus [23]): 13000 nM

More lines, now with the values ahead:

IC50 (dengue virus type 1 [16]): 2320 nM | IC50 (dengue virus type 3 [17]): 1660 nM | IC50 (dengue virus type 2 [18]): 2080 nM | IC50 (dengue virus type 4 [19]): 1900 nM
Compound: IVERMECTIN

EC50 (dengue virus type 2 [20]): 3900 nM
Compound: CNC1CN(c2c(F)c(N)c3c(=O)c(C(=O)O)cn(C4CC4)c3c2Cl)CC1OC (configuration not stated)

Kd [21]: 166000 nM | EC50 (dengue virus type 2 [22]): 2430 nM
Compound: CN1CCN(c2ccc(C(=O)Nc3n[nH]c4ccc(Cc5cc(F)cc(F)c5)cc34)c(NC3CCOCC3)c2)CC1 [ENTRECTINIB]
